Results reported in US20100323016A1, “MODIFIED RELEASE FORMULATION AND METHODS OF USE” (priority 2008, published 2010).
≈ marks a conversion by molar mass, not a printed value. Where two headings read alike, the source gives them in different places.

Experiment: Solubility of retigabine in aqueous solution at varying pH
Type: physicochemical
From the text: Solubility was low in pH ranges of between pH 4.0 to pH 12.0.

In the case of `CCOC(=O)Nc1ccc(NCc2ccc(F)cc2)cc1N` [retigabine, N-(2-amino-4-(fluorobenzylamino)-phenyl)carbamic acid ethyl ester], the “solubility as a function of pH” value (above pH 3 (FIG. 5)) is reported as “drops off precipitously”, the solubility (pH 3.0, aqueous conditions at 37° C.) is reported as “nearly complete insolubility” and the solubility (pH 4.0 to pH 12.0, aqueous solution at 37° C.) is reported as “low”. For the same compound, the solubility (simulated gastric fluid, pH 1.5, aqueous solution at 37° C., maximum solubility, read-out: solubility) was ~16 mg/mL (≈ 52.7 mM) and the solubility (simulated gastric fluid, pH 2.0, aqueous solution at 37° C., read-out: solubility) was < 4 mg/mL.
